Tests used:
[1] = tested on: NCTC2472 fibrosarcoma or MDA-MB231 breast cancer cells injected into bone; assay: Spontaneous paw lifting behaviour (pain) in bone cancer model; assay type: in vivo, mice; conditions: day 14 post tumor cell inoculation; dosed at MTD by oral gavage once daily; 4 minutes observation; vehicle 80%
Procedure: Male C3H/HeNCrl mice for the NCTC2472 mouse fibrosarcoma cells (20-25 g, Charles River, Sulzfeld, Germany) or female NMRI Nude mice for the MDA MB 231 human breast cancer cells (Janvier, France) were used. Induction of bone cancer was carried out as previously described (Schwei et al., 1999^1). Induction of general anaesthesia was performed under 4% isoflurane in a mixture of 30% O2 and 70% air (1000 ml/ min). Anaesthesia was then maintained at 2.5% isoflurane for the duration of the surgical procedure. The left hind paw was shaved and disinfected with povidone-iodine followed by 70% ethanol. A superficial 1 cm incision was made over the knee overlaying the patella. The patella ligament was cut, exposing the condyles of the distal femur. A 23-gauge needle was inserted at the level of the intercondylar notch and the intramedullary canal of the femur to create a cavity for injection of the cells. Tumour cells (2.5×10^6 cells/20 μl) were then injected into the bone cavity using a 0.3 ml syringe. To prevent leakage of cells outside the bone, the injection site was sealed with dental acrylic (Paladur, Heraeus Kulzer, GmbH, Wehrheim, Germany) and the wound closed with skin stitches. For the sham-operated group, an identical procedure was followed except that medium without cells was injected. […]

[2] = tested on: NCTC2472 fibrosarcoma or MDA-MB231 breast cancer cells injected into bone; assay: Evaluation of bone destruction by μCT of ipsilateral left hind limbs; assay type: in vivo, mice; conditions: tumor inoculated animals, dosed at MTD; compared with vehicle and sham
Procedure: (§1) Male C3H/HeNCrl mice for the NCTC2472 mouse fibrosarcoma cells (20-25 g, Charles River, Sulzfeld, Germany) or female NMRI Nude mice for the MDA MB 231 human breast cancer cells (Janvier, France) were used. Induction of bone cancer was carried out as previously described (Schwei et al., 1999^1). Induction of general anaesthesia was performed under 4% isoflurane in a mixture of 30% O2 and 70% air (1000 ml/ min). Anaesthesia was then maintained at 2.5% isoflurane for the duration of the surgical procedure. The left hind paw was shaved and disinfected with povidone-iodine followed by 70% ethanol. A superficial 1 cm incision was made over the knee overlaying the patella. The patella ligament was cut, exposing the condyles of the distal femur. A 23-gauge needle was inserted at the level of the intercondylar notch and the intramedullary canal of the femur to create a cavity for injection of the cells. Tumour cells (2.5×10^6 cells/20 μl) were then injected into the bone cavity using a 0.3 ml syringe. To prevent leakage of cells outside the bone, the injection site was sealed with dental acrylic (Paladur, Heraeus Kulzer, GmbH, Wehrheim, Germany) and the wound closed with skin stitches. For the sham-operated group, an identical procedure was followed except that medium without cells was injected.

[3] = tested on: MDA B231 bone homing clone cells; assay: Bone cancer metastasis model, histological sections after 42 days; assay type: in vivo, mice; conditions: po, qd
Procedure: as §1
In the bone cancer metastasis model MDA B231 bone homing clone cells were inoculated into the tibia as described. After 42 days, animals were sacrificed and the amputated paws placed in fixative. The legs were de-calcified and sections cut to determine levels of bone destruction.

[4] = oral gavage, once daily
[5] = Tissue distribution profile; assay type: in vivo

SMILES: COc1cc2ncnc3c2cc1OCCCCCN(C)Cc1ccc(Br)cc1N3 [Compound 1, 4,6-ethanediylidenepyrimido[4,5-b][6,1,12]benzoxadiazacyclo-pentadecine, 17-bromo-8,9,10,11,12,13,14,19-octahydro-20-methoxy-13-methyl]
- percentage of the time the left hind paw was raised (spontaneous paw lifting) [1]: ~8%
- osteolytic bone destruction (μCt reconstructions, FIG. 2) [2]: significantly less bone destruction
- detectable tumor in histological sections (FIG. 3) ([3]; 100 mg per kg): detectable tumor is hardly present
- signs of tumor cells and bone destruction ([3]; 100 mg per kg): no signs of tumor cell not any signs bone destruction
- amount of tumor growth and amount of bone destruction ([3]; dose dependence): dose dependently reduced
- maximum tolerated dose (MTD) [4]: 200 mg per kg
- tissue distribution to bone marrow ([5]; in vivo): preferential tissue distribution to the bone marrow compartment
- blood brain barrier penetration ([5]; intact blood brain barrier): ability to cross the intact blood brain barrier

SMILES: COc1cc2ncnc(Nc3ccc(F)c(Cl)c3)c2cc1OCCCN1CCOCC1 [Iressa, reference compound]
- percentage of the time the left hind paw was raised (spontaneous paw lifting) [1]: more than 35%
- osteolytic bone destruction (μCt reconstructions, FIG. 2) [2]: Considerable bone loss
- maximum tolerated dose (MTD) [4]: 50 mg per kg
